Source: ChEMBL document CHEMBL1133412, “Rational design, synthesis and structure-activity relationships of antitumor (E)-2-benzylidene-1-tetralones and (E)-2-benzylidene-1-indanones” (Bioorg Med Chem Lett, 2000)
Active and inactive are the calls of the source. The calls are words filed in the database; no cut-off is given here.

How the values were obtained:
Format in all cases: functional, cell-based
NCI-H596 [1] = test: Cytotoxicity was evaluated against H596 tumor cell lines; Inactive; conditions: Homo sapiens
B16 [2] = test: Cytotoxicity was evaluated against B16 tumor cell lines; Inactive; conditions: Mus musculus
CCRF-CEM [3] = test: Cytotoxicity was evaluated against CEM tumor cell lines; Inactive; conditions: Homo sapiens
Jurkat = test: In vitro test for antitumor activity against human Jurkat cell line using a formazan dye (MTT) conversion assay.
K562 [4] = test: Cytotoxicity was evaluated against K562 tumor cell lines; Inactive; conditions: Homo sapiens
MCF7 [5] = test: Cytotoxicity was evaluated against MCF-7 tumor cell lines; Inactive; conditions: Homo sapiens
NCI-H292 [6] = test: Cytotoxicity was evaluated against H292 tumor cell lines; Inactive; conditions: Homo sapiens
WIL2 [7] = test: Cytotoxicity was evaluated against WIL2 tumor cell lines; Inactive; conditions: Homo sapiens
A549 [8] = test: Cytotoxicity was evaluated against A549 tumor cell lines; Inactive; conditions: Homo sapiens
MOLT-4 [9] = test: Cytotoxicity was evaluated against Molt-4 tumor cell lines; Inactive; conditions: Homo sapiens
NIH3T3 [10] = test: Cytotoxicity was evaluated against NIH3T3 tumor cell lines; Inactive; conditions: Mus musculus
L1210 [11] = test: Cytotoxicity was evaluated against L1210 tumor cell lines; Inactive; conditions: Mus musculus
WI-38 [12] = test: Cytotoxicity was evaluated against WI38 tumor cell lines; Inactive; conditions: Homo sapiens
HL-60 [13] = test: Cytotoxicity was evaluated against HL-60 tumor cell lines; Inactive; conditions: Homo sapiens
A549 [14] = test: Cytotoxicity evaluated against A549 tumor cell lines; significant activity; conditions: Homo sapiens
CCRF-CEM [15] = test: Cytotoxicity evaluated against CEM tumor cell lines; Significant activity; conditions: Homo sapiens
NCI-H292 [16] = test: Cytotoxicity evaluated against H292 tumor cell lines; Significant activity; conditions: Homo sapiens
WI-38 [17] = test: Cytotoxicity evaluated against WI38 tumor cell lines; Significant activity; conditions: Homo sapiens
MCF7 [18] = test: Cytotoxicity evaluated against MCF-7 tumor cell lines; Significant activity; conditions: Homo sapiens
L1210 [19] = test: Cytotoxicity evaluated against L1210 tumor cell lines; Significant activity; conditions: Mus musculus
WIL2 [20] = test: Cytotoxicity evaluated against WIL2 tumor cell lines; Significant activity; conditions: Homo sapiens
MOLT-4 [21] = test: Cytotoxicity was evaluated against Molt-4 tumor cell lines; conditions: Homo sapiens
K562 [22] = test: Cytotoxicity evaluated against K562 tumor cell lines; Significant activity; conditions: Homo sapiens
NIH3T3 [23] = test: Cytotoxicity evaluated against NIH3T3 tumor cell lines; Significant activity; conditions: Mus musculus
B16 [24] = test: Cytotoxicity was evaluated against B16 tumor cell lines; Significant activity; conditions: Mus musculus
HL-60 [25] = test: Cytotoxicity evaluated against HL-60 tumor cell lines; Significant activity; conditions: Homo sapiens
NCI-H596 [26] = test: Cytotoxicity evaluated against H596 tumor cell lines; Significant activity; conditions: Homo sapiens

For `COc1cc2c(c([N+](=O)[O-])c1OC)C(=O)/C(=C/c1cc(C)c(O)c(C)c1)C2`, the Cytotoxicity (NCI-H596 [1]) was “inactive”, the Cytotoxicity (B16 [2]) was “inactive” and the Cytotoxicity (CCRF-CEM [3]) was “inactive”. For the same compound, the IC50 (Jurkat) was > 50 µM, the Cytotoxicity (K562 [4]) was “inactive” and the Cytotoxicity (MCF7 [5]) was “inactive”. The Cytotoxicity (NCI-H292 [6]) was “inactive”, the Cytotoxicity (WIL2 [7]) was “inactive” and the Cytotoxicity (A549 [8]) was “inactive”. The Cytotoxicity (MOLT-4 [9]) was “inactive”, the Cytotoxicity (NIH3T3 [10]) was “inactive” and the Cytotoxicity (L1210 [11]) was “inactive”. The Cytotoxicity (WI-38 [12]) was “inactive” and the Cytotoxicity (HL-60 [13]) was “inactive”.

For `COc1cc2c(cc1OC)C(=O)/C(=C/c1c(OC)cccc1OC)CC2`, the Cytotoxicity (NCI-H596 [1]) was “inactive”, the Cytotoxicity (B16 [2]) was “inactive” and the Cytotoxicity (CCRF-CEM [3]) was “inactive”. For the same compound, the IC50 (Jurkat) was > 50 µM, the Cytotoxicity (K562 [4]) was “inactive” and the Cytotoxicity (MCF7 [5]) was “inactive”. For the same compound, the Cytotoxicity (NCI-H292 [6]) was “inactive”, the Cytotoxicity (WIL2 [7]) was “inactive” and the Cytotoxicity (A549 [8]) was “inactive”. The Cytotoxicity (MOLT-4 [9]) was “inactive”, the Cytotoxicity (NIH3T3 [10]) was “inactive” and the Cytotoxicity (L1210 [11]) was “inactive”. The Cytotoxicity (WI-38 [12]) was “inactive” and the Cytotoxicity (HL-60 [13]) was “inactive”.

For `COc1cc2c(cc1OC)C(=O)/C(=C/c1ccc(O)c(C)c1)C2`, the Cytotoxicity (A549 [14]) was “Significant activity”, the Cytotoxicity (CCRF-CEM [15]) was “Significant activity” and the Cytotoxicity (NCI-H292 [16]) was “Significant activity”. For the same compound, the Cytotoxicity (WI-38 [17]) was “Significant activity”, the IC50 (Jurkat) was 1.16 µM and the Cytotoxicity (MCF7 [18]) was “Significant activity”. For the same compound, the Cytotoxicity (L1210 [19]) was “Significant activity”, the Cytotoxicity (WIL2 [20]) was “Significant activity” and the Cytotoxicity (MOLT-4 [21]) was “Significant activity”. The Cytotoxicity (K562 [22]) was “Significant activity”, the Cytotoxicity (NIH3T3 [23]) was “Significant activity” and the Cytotoxicity (B16 [24]) was “Significant activity”. For the same compound, the Cytotoxicity (HL-60 [25]) was “Significant activity” and the Cytotoxicity (NCI-H596 [26]) was “Significant activity”.

With `COc1cc2c(cc1OC)C(=O)/C(=C/c1cc(C)ccc1C)CC2` the Cytotoxicity (A549 [14]) was “Significant activity”, the Cytotoxicity (CCRF-CEM [15]) was “Significant activity” and the Cytotoxicity (NCI-H292 [16]) was “Significant activity”. The Cytotoxicity (WI-38 [17]) was “Significant activity”, the IC50 (Jurkat) was 6 µM and the Cytotoxicity (MCF7 [18]) was “Significant activity”. The Cytotoxicity (L1210 [19]) was “Significant activity”, the Cytotoxicity (WIL2 [20]) was “Significant activity” and the Cytotoxicity (MOLT-4 [21]) was “Significant activity”. The Cytotoxicity (K562 [22]) was “Significant activity”, the Cytotoxicity (NIH3T3 [23]) was “Significant activity” and the Cytotoxicity (B16 [24]) was “Significant activity”. For the same compound, the Cytotoxicity (HL-60 [25]) was “Significant activity” and the Cytotoxicity (NCI-H596 [26]) was “Significant activity”.

In the case of `COc1cc2c(cc1OC)C(=O)/C(=C/c1cc(C)c(N)c(C)c1)C2`, the Cytotoxicity (A549 [14]) is reported as “Significant activity”, the Cytotoxicity (CCRF-CEM [15]) is reported as “Significant activity” and the Cytotoxicity (NCI-H292 [16]) is reported as “Significant activity”. The Cytotoxicity (WI-38 [17]) was “Significant activity”, the IC50 (Jurkat) was 0.055 µM and the Cytotoxicity (MCF7 [18]) was “Significant activity”. For the same compound, the Cytotoxicity (L1210 [19]) was “Significant activity”, the Cytotoxicity (WIL2 [20]) was “Significant activity” and the Cytotoxicity (MOLT-4 [21]) was “Significant activity”. The Cytotoxicity (K562 [22]) was “Significant activity”, the Cytotoxicity (NIH3T3 [23]) was “Significant activity” and the Cytotoxicity (B16 [24]) was “Significant activity”. The Cytotoxicity (HL-60 [25]) was “Significant activity” and the Cytotoxicity (NCI-H596 [26]) was “Significant activity”.

`COc1cc2c(cc1OC)C(=O)/C(=C/c1cc(C)c(OCC(=O)O)c(C)c1)C2` was tested, and the Cytotoxicity (A549 [14]) was “Significant activity”, the Cytotoxicity (CCRF-CEM [15]) was “Significant activity” and the Cytotoxicity (NCI-H292 [16]) was “Significant activity”. For the same compound, the Cytotoxicity (WI-38 [17]) was “Significant activity”, the IC50 (Jurkat) was 6.3 µM and the Cytotoxicity (MCF7 [18]) was “Significant activity”. The Cytotoxicity (L1210 [19]) was “Significant activity”, the Cytotoxicity (WIL2 [20]) was “Significant activity” and the Cytotoxicity (MOLT-4 [21]) was “Significant activity”. The Cytotoxicity (K562 [22]) was “Significant activity”, the Cytotoxicity (NIH3T3 [23]) was “Significant activity” and the Cytotoxicity (B16 [24]) was “Significant activity”. For the same compound, the Cytotoxicity (HL-60 [25]) was “Significant activity” and the Cytotoxicity (NCI-H596 [26]) was “Significant activity”.

With `COc1cc2c(cc1OC)C(=O)/C(=C/c1cc(F)cc(F)c1)C2` the Cytotoxicity (A549 [14]) was “Significant activity”, the Cytotoxicity (CCRF-CEM [15]) was “Significant activity” and the Cytotoxicity (NCI-H292 [16]) was “Significant activity”. The Cytotoxicity (WI-38 [17]) was “Significant activity”, the IC50 (Jurkat) was 19 µM and the Cytotoxicity (MCF7 [18]) was “Significant activity”. The Cytotoxicity (L1210 [19]) was “Significant activity”, the Cytotoxicity (WIL2 [20]) was “Significant activity” and the Cytotoxicity (MOLT-4 [21]) was “Significant activity”. For the same compound, the Cytotoxicity (K562 [22]) was “Significant activity”, the Cytotoxicity (NIH3T3 [23]) was “Significant activity” and the Cytotoxicity (B16 [24]) was “Significant activity”. The Cytotoxicity (HL-60 [25]) was “Significant activity” and the Cytotoxicity (NCI-H596 [26]) was “Significant activity”.
